This assay concerns T1, Tg_chitinase.
T1 construct: gene TGME49_286465
Description: colorimetric p-nitrophenol release at […] nm, non-linear regression. Type of assay: biochemical, Toxoplasma gondii. The note with it: substrate 0.01 to 0.1 mM; general assay 0.1 M sodium acetate buffer, 37°C; pH 4.0 and 50°C are the optima listed beside the Km.

Broadly, the Km is the substrate concentration at which the rate is half of its maximum. With `CC(=O)N[C@H]1[C@H](Oc2ccc([N+](=O)[O-])cc2)O[C@H](CO)[C@@H](O)[C@@H]1O` [pNPGlcNAc], the Km was 340 µM.

The record behind these values is PMC4684212, “Toxoplasma gondii Chitinase Induces Macrophage Activation” (PLoS ONE, 2015).
